{"source": "paper PMC4979471", "about": "(Cell Death Discovery, 2015)", "assay_in_all_cases": "Kinase selectivity, P33-radiolabeled assay", "format_in_all_cases": "biochemical", "details_in_all_cases": "10 μM ATP", "key": {"SSTK/TSSK6": {"target": "T1, SSTK/TSSK6 (Homo sapiens, UniProt Q9BXA6)", "T1 construct": "purchased Reaction Biology Corp", "T1 sequence (Q9BXA6 whole entry)": "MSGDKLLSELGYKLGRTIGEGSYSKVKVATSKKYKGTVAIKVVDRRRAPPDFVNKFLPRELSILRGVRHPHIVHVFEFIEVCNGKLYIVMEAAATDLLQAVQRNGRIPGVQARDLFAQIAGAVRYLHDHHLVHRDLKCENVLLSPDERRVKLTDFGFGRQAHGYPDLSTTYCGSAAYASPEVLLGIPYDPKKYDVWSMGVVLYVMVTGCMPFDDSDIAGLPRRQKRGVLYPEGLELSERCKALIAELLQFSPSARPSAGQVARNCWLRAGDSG", "method_in_brief": "(§1)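 ATP at 10 μM; test article at 10 μM, single point, two replicates. Output is activity as % of DMSO.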"}, "TIE2/TEK": {"target": "T2, TIE2/TEK (Homo sapiens, UniProt Q02763)", "T2 construct": "purchased Reaction Biology Corp", "T2 sequence (Q02763 23-1124)": "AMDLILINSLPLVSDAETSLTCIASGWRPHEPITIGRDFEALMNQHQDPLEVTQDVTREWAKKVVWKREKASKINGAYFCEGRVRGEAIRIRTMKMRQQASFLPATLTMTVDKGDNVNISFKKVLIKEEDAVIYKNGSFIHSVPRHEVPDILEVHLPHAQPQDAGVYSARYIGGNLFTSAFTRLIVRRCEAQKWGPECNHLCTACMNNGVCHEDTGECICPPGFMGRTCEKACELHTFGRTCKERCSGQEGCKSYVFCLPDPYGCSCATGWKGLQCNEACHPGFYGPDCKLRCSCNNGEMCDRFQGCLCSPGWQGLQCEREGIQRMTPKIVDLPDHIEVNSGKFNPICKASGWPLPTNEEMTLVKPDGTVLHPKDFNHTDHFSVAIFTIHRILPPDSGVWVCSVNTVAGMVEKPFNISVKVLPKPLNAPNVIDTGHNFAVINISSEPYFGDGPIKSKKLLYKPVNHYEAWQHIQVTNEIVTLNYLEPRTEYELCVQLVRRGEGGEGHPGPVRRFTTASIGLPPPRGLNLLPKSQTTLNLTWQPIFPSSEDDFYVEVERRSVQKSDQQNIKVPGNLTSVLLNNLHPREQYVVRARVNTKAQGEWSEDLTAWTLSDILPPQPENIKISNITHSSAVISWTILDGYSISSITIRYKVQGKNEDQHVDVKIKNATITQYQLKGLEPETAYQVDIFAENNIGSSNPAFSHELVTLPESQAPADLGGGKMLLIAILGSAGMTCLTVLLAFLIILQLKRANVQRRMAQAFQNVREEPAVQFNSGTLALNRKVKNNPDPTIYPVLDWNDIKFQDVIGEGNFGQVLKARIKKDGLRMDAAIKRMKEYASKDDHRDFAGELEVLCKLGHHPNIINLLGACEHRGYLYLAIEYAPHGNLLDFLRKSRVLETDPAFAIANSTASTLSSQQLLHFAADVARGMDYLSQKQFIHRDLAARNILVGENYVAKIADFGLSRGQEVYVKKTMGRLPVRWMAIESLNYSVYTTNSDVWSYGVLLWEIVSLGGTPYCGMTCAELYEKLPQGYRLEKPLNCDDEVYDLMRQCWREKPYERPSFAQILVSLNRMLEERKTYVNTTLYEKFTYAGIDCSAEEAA", "method_in_brief": "as §1"}, "PIM1": {"target": "T3, PIM1 (Homo sapiens, UniProt P11309)", "T3 construct": "purchased Reaction Biology Corp", "T3 sequence (P11309 whole entry)": "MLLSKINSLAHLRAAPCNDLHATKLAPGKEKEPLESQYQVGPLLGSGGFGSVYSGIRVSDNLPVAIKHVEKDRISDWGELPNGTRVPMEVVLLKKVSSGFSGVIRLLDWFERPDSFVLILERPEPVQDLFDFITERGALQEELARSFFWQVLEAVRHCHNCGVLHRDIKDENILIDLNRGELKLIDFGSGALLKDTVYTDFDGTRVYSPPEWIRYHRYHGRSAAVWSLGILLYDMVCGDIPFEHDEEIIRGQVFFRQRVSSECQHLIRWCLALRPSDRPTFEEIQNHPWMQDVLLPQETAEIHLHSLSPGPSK", "method_in_brief": "as §1"}, "CLK4": {"target": "T4, CLK4 (Homo sapiens, UniProt Q9HAZ1)", "T4 construct": "purchased Reaction Biology Corp", "T4 sequence (Q9HAZ1 whole entry)": "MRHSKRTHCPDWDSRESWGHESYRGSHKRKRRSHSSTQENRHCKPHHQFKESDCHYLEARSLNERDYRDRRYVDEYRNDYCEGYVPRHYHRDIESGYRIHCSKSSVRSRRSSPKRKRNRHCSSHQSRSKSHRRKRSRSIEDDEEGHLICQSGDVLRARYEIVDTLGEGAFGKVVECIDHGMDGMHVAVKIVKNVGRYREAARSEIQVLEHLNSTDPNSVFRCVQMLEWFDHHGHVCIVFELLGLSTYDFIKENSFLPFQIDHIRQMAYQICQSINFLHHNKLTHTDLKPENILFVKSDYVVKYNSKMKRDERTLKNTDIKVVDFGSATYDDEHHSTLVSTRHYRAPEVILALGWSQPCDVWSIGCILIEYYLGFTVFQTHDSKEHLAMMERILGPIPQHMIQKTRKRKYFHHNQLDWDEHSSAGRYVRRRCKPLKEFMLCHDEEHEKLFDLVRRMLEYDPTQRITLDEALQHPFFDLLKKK", "method_in_brief": "as §1"}, "MSK1/RPS6KA5": {"target": "T5, MSK1/RPS6KA5 (Homo sapiens, UniProt O75582)", "T5 construct": "purchased Reaction Biology Corp", "T5 sequence (O75582 whole entry)": "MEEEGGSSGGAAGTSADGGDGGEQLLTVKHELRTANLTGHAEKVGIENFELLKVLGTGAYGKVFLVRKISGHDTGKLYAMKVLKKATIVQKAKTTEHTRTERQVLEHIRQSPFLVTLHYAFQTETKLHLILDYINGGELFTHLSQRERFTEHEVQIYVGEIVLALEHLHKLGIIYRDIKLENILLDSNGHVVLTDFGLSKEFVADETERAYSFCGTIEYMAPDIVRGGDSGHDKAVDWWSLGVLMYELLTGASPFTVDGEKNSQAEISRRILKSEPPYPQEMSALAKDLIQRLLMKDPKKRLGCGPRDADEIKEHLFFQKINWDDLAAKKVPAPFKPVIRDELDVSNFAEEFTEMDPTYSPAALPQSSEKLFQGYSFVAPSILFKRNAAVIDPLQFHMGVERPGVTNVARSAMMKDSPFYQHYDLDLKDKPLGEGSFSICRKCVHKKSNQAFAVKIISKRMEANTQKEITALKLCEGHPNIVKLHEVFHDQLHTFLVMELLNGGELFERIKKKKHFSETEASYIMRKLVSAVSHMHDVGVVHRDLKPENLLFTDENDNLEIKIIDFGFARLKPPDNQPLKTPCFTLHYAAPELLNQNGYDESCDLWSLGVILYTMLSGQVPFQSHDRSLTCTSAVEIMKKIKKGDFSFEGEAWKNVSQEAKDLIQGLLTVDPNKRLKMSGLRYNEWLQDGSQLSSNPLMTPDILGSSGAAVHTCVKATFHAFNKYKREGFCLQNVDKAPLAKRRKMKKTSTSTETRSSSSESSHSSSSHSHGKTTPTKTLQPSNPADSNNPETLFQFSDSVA", "method_in_brief": "as §1"}, "MELK": {"target": "T6, MELK (Homo sapiens, UniProt Q14680)", "T6 construct": "purchased Reaction Biology Corp", "T6 sequence (Q14680 whole entry)": "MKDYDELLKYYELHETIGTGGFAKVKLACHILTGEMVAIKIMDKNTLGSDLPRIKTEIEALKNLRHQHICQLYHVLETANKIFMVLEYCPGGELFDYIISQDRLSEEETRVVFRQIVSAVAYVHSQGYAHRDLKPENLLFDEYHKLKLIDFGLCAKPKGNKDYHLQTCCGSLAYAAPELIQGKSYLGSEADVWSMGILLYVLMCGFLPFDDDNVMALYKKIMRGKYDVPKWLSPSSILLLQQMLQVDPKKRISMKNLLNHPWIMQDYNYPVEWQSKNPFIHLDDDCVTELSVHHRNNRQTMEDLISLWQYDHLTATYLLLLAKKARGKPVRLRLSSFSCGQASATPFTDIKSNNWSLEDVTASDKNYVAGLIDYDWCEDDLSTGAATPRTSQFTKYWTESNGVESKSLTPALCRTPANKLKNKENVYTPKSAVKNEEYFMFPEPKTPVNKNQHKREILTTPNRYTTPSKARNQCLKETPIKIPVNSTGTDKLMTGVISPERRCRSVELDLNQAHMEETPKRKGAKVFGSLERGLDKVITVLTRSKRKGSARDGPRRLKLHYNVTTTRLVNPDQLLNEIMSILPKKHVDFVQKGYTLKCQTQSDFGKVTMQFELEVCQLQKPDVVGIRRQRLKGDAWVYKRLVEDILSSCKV", "method_in_brief": "as §1"}, "DMPK": {"target": "T7, DMPK (Homo sapiens, UniProt Q09013)", "T7 construct": "purchased Reaction Biology Corp", "T7 sequence (Q09013 1-629)": "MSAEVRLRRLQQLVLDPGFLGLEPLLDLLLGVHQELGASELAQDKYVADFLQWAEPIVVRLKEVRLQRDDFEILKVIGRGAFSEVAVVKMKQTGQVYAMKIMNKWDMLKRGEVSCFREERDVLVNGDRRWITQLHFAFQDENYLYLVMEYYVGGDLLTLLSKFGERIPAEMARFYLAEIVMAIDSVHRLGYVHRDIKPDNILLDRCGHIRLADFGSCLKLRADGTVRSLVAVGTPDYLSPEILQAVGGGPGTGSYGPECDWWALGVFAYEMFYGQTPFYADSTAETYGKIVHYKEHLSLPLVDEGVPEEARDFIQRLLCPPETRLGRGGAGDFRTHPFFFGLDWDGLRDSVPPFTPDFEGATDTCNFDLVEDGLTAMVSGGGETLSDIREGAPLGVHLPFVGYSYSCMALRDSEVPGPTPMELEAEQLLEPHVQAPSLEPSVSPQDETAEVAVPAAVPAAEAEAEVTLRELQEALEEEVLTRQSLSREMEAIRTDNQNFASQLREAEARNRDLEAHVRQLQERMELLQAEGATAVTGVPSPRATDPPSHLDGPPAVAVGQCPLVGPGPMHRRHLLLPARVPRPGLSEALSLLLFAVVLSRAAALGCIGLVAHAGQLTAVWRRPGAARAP", "method_in_brief": "as §1"}, "MKK4": {"target": "T8, MKK4 (Homo sapiens, UniProt P45985)", "T8 construct": "purchased Reaction Biology Corp", "T8 sequence (P45985 1-399)": "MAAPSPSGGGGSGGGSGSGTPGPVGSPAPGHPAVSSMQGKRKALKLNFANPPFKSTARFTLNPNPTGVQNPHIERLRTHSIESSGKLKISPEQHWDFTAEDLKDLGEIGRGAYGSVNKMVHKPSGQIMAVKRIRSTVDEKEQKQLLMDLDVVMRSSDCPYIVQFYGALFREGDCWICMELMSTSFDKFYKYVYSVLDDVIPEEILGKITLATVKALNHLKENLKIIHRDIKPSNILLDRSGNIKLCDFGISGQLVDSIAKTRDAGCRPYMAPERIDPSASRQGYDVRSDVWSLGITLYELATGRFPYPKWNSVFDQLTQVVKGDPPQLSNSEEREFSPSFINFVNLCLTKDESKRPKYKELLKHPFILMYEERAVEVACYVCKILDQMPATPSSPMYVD", "method_in_brief": "as §1"}, "ERK5/MAPK7": {"target": "T9, ERK5/MAPK7 (Homo sapiens, UniProt Q13164)", "T9 construct": "purchased Reaction Biology Corp", "T9 sequence (Q13164 whole entry)": "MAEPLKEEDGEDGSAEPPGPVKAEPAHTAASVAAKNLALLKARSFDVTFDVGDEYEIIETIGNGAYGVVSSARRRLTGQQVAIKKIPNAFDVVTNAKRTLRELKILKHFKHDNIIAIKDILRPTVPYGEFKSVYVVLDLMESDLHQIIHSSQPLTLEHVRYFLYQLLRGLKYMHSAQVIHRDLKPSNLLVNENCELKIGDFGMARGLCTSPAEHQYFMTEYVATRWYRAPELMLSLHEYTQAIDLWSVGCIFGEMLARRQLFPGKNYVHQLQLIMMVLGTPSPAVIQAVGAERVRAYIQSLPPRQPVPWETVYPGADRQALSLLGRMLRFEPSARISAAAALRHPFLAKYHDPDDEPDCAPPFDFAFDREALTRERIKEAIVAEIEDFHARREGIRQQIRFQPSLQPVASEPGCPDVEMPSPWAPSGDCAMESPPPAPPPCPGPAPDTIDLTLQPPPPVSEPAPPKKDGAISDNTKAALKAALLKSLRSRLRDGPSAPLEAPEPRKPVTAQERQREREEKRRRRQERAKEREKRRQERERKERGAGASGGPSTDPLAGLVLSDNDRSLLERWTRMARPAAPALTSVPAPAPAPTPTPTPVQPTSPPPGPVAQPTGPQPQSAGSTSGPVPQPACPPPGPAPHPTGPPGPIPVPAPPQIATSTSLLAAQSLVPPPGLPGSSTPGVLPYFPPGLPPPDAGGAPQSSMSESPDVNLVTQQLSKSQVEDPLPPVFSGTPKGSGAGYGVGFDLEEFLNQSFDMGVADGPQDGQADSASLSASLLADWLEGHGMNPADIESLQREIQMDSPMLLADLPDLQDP", "method_in_brief": "as §1"}, "RIPK2": {"target": "T10, RIPK2 (Homo sapiens, UniProt O43353)", "T10 construct": "purchased Reaction Biology Corp", "T10 sequence (O43353 whole entry)": "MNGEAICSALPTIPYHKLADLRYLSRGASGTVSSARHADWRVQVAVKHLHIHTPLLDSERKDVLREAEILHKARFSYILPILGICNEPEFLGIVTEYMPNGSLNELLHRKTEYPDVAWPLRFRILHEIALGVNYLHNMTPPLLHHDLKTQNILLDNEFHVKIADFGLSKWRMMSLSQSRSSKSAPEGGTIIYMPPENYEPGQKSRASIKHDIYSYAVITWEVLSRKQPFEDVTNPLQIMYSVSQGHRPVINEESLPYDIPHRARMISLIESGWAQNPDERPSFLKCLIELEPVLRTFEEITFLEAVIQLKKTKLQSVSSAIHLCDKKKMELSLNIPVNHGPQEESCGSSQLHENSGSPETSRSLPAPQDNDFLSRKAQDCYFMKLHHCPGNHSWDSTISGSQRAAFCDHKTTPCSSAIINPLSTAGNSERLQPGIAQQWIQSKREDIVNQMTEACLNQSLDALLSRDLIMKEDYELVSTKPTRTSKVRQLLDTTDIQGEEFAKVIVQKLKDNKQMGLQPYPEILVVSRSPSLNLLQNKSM", "method_in_brief": "as §1"}, "GRK7": {"target": "T11, GRK7 (Homo sapiens, UniProt Q8WTQ7)", "T11 construct": "purchased Reaction Biology Corp", "T11 sequence (Q8WTQ7 1-553)": "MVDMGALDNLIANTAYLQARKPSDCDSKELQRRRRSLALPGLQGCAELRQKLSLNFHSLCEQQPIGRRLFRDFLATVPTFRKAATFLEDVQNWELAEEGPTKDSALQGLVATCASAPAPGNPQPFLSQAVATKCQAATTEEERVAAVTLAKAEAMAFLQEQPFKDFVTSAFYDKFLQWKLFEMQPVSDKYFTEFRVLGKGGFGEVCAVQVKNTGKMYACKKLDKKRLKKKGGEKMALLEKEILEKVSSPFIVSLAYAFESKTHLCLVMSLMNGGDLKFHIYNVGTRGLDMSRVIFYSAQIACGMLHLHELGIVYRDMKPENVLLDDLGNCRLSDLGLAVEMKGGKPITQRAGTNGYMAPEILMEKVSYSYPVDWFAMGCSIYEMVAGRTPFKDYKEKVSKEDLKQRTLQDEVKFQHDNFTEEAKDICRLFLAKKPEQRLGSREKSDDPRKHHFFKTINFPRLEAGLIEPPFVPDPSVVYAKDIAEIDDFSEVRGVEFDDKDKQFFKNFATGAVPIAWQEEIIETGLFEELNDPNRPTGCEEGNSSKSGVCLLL", "method_in_brief": "as §1"}, "[1]": {"details": "read-out: % Enzyme Activity (relative to DMSO controls) AVG"}, "[2]": {"details": "read-out: % Enzyme Activity (relative to DMSO controls) Data 1"}, "[3]": {"details": "read-out: % Enzyme Activity (relative to DMSO controls) Data 2"}}, "note": "Read-outs that look alike come from different tables or passages of the source.", "data": [{"smiles": "CC(C)(C)C(=O)N1N=CC[C@H]1c1ccccc1", "note": "[GSK′963]", "values": [{"measurement": "remaining activity at 10 µM", "setting": "SSTK/TSSK6; [1]", "result": 99, "unit": "%"}, {"measurement": "remaining activity at 10 µM", "setting": "SSTK/TSSK6; [2]", "result": 99.3, "unit": "%"}, {"measurement": "remaining activity at 10 µM", "setting": "SSTK/TSSK6; [3]", "result": 98.6, "unit": "%"}, {"measurement": "remaining activity at 10 µM", "setting": "TIE2/TEK; [1]", "result": 98.1, "unit": "%"}, {"measurement": "remaining activity at 10 µM", "setting": "TIE2/TEK; [2]", "result": 95.5, "unit": "%"}, {"measurement": "remaining activity at 10 µM", "setting": "TIE2/TEK; [3]", "result": 101, "unit": "%"}, {"measurement": "remaining activity at 10 µM", "setting": "PIM1; [1]", "result": 109, "unit": "%"}, {"measurement": "remaining activity at 10 µM", "setting": "PIM1; [2]", "result": 113, "unit": "%"}, {"measurement": "remaining activity at 10 µM", "setting": "PIM1; [3]", "result": 106, "unit": "%"}, {"measurement": "remaining activity at 10 µM", "setting": "CLK4; [1]", "result": 100, "unit": "%"}, {"measurement": "remaining activity at 10 µM", "setting": "CLK4; [2]", "result": 101, "unit": "%"}, {"measurement": "remaining activity at 10 µM", "setting": "CLK4; [3]", "result": 99.8, "unit": "%"}, {"measurement": "remaining activity at 10 µM", "setting": "MSK1/RPS6KA5; [1]", "result": 108, "unit": "%"}, {"measurement": "remaining activity at 10 µM", "setting": "MSK1/RPS6KA5; [2]", "result": 108, "unit": "%"}, {"measurement": "remaining activity at 10 µM", "setting": "MSK1/RPS6KA5; [3]", "result": 108, "unit": "%"}, {"measurement": "remaining activity at 10 µM", "setting": "MELK; [1]", "result": 104, "unit": "%"}, {"measurement": "remaining activity at 10 µM", "setting": "MELK; [2]", "result": 105, "unit": "%"}, {"measurement": "remaining activity at 10 µM", "setting": "MELK; [3]", "result": 103, "unit": "%"}, {"measurement": "remaining activity at 10 µM", "setting": "DMPK; [1]", "result": 99.2, "unit": "%"}, {"measurement": "remaining activity at 10 µM", "setting": "DMPK; [2]", "result": 97.5, "unit": "%"}, {"measurement": "remaining activity at 10 µM", "setting": "DMPK; [3]", "result": 101, "unit": "%"}, {"measurement": "remaining activity at 10 µM", "setting": "MKK4; [1]", "result": 105, "unit": "%"}, {"measurement": "remaining activity at 10 µM", "setting": "MKK4; [2]", "result": 105, "unit": "%"}, {"measurement": "remaining activity at 10 µM", "setting": "MKK4; [3]", "result": 105, "unit": "%"}, {"measurement": "remaining activity at 10 µM", "setting": "ERK5/MAPK7; [1]", "result": 97.8, "unit": "%"}, {"measurement": "remaining activity at 10 µM", "setting": "ERK5/MAPK7; [2]", "result": 95.5, "unit": "%"}, {"measurement": "remaining activity at 10 µM", "setting": "ERK5/MAPK7; [3]", "result": 100, "unit": "%"}, {"measurement": "remaining activity at 10 µM", "setting": "RIPK2; [1]", "result": 110, "unit": "%"}, {"measurement": "remaining activity at 10 µM", "setting": "RIPK2; [2]", "result": 108, "unit": "%"}, {"measurement": "remaining activity at 10 µM", "setting": "RIPK2; [3]", "result": 112, "unit": "%"}, {"measurement": "remaining activity at 10 µM", "setting": "GRK7; [1]", "result": 90.3, "unit": "%"}, {"measurement": "remaining activity at 10 µM", "setting": "GRK7; [2]", "result": 88.3, "unit": "%"}, {"measurement": "remaining activity at 10 µM", "setting": "GRK7; [3]", "result": 92.4, "unit": "%"}]}]}
